# Legend:
# [1] = Plasma pharmacokinetics in patients; format: in vivo, human; details: for half-life / AUC(0-t) / Cmax / Tmax: human, plasma; for AUC(0-t): AUC 0-24, geometric mean; for Cmax: geometric mean; for Tmax: median
# [2] = tested on: phospho-AKT (Ser473) in platelet-rich plasma; experiment: Phospho-AKT in platelet-rich plasma; format: in vivo, human
# [3] = tested on: phospho-S6 (Ser235/236) in tumor tissue; experiment: Phospho-S6 immunohistochemistry in paired tumor biopsies; format: in vivo, human
# [4] = tested on: phospho-AKT (Serine 473) in tumor tissue; experiment: Phospho-AKT immunohistochemistry in paired tumor biopsies; format: in vivo, human
# [5] = tested on: tumor 18F-FDG uptake; experiment: Whole body 18F-FDG-PET; format: in vivo, human
# [6] = tested on: advanced solid tumors; experiment: Antitumor activity; format: in vivo, human
# [7] = tested on: PI3K signaling; experiment: Multimodal pharmacodynamic assessment; format: in vivo, human; details: regardless of molecular genetic status
# [8] = tested on: purified recombinant human PI3K p110α; details: read-out: IC50 p110α; purified recombinant human PI3K isoforms; cited from earlier work
# [9] = tested on: plasma insulin; details: 330mg, cycle 1 day 1, 1 hour from baseline
# [10] = tested on: plasma glucose; details: 330mg, cycle 1 day 1, 1 hour from baseline
# [11] = tested on: purified recombinant human PI3K p110β; details: read-out: IC50 p110β; purified recombinant human PI3K isoforms; cited from earlier work
# [12] = tested on: purified recombinant human PI3K p110δ; details: read-out: IC50 p110δ; purified recombinant human PI3K isoforms; cited from earlier work
# [13] = tested on: mTOR; details: cited from earlier work
# [14] = tested on: U87MG glioblastoma xenografts; details: oral dose of 150mg/kg; U87MG glioblastoma xenograft; cited from earlier work
# [15] = tested on: IGROV1 ovarian cancer xenografts; details: oral dose of 150mg/kg; IGROV1 ovarian cancer xenograft; cited from earlier work
# [16] = cited from earlier work
# [17] = tested on: Class I PI3K; details: cited from earlier work
# [18] = tested on: purified recombinant human PI3K p110γ; details: read-out: IC50 p110γ; purified recombinant human PI3K isoforms; cited from earlier work
# [19] = oral, 15 mg, Day 1, 15 mg QD, 4 patients
# [20] = oral, 15 mg, Day 15, 15 mg QD, 4 patients
# [21] = oral, 30 mg, Day 1, 30 mg QD, 3 patients
# [22] = oral, 30 mg, Day 15, 30 mg QD, 3 patients
# [23] = oral, 45 mg, Day 1, 45 mg QD, 4 patients
# [24] = oral, 45 mg, Day 15, 45 mg QD, 4 patients
# [25] = oral, 60 mg, Day 1, 60 mg QD, 4 patients
# [26] = oral, 60 mg, Day 15, 60 mg QD, 3 patients
# [27] = oral, 80 mg, Day 1, 80 mg QD, 3 patients
# [28] = oral, 80 mg, Day 15, 80 mg QD, 3 patients
# [29] = oral, 100 mg, Day 1, 100 mg QD, 5 patients
# [30] = oral, 100 mg, Day 15, 100 mg QD, 3 patients
# [31] = oral, 130 mg, Day 1, 130 mg QD, 3 patients
# [32] = oral, 130 mg, Day 15, 130 mg QD, 3 patients
# [33] = oral, 180 mg, Day 1, 180 mg QD, 3 patients
# [34] = oral, 180 mg, Day 15, 180 mg QD, 3 patients
# [35] = oral, 245 mg, Day 1, 245 mg QD, 3 patients
# [36] = oral, 245 mg, Day 15, 245 mg QD, 3 patients
# [37] = oral, 330 mg, Day 1, 330 mg QD, 17 patients
# [38] = oral, 330 mg, Day 15, 330 mg QD, 17 patients
# [39] = oral, 340 mg, Day 1, 340 mg QD, 7 patients
# [40] = oral, 340 mg, Day 15, 340 mg QD, 6 patients
# [41] = oral, 400 mg, Day 1, 400 mg QD, 1 patient
# [42] = oral, 450 mg, Day 1, 450 mg QD, 3 patients
# [43] = oral, 450 mg, Day 15, 450 mg QD, 3 patients
# [44] = patient with cKIT exon 9 mutant gastrointestinal stromal tumor, 450mg once-daily
# [45] = platinum-refractory ovarian cancer patient, 100mg once-daily 21/28
# [46] = 9 patients with PI3K pathway alterations
# [47] = patient with BRAF V600E-mutated metastatic melanoma, 330mg once-daily 21/28
smiles,measurement,setting,value
"CS(=O)(=O)N1CCN(Cc2cc3nc(-c4cccc5[nH]ncc45)nc(N4CCOCC4)c3s2)CC1 [pictilisib, 2-(1H-indazol-4-yl)-6-(4-methanesulfonyl-piperazin-1-ylmethyl)-4-morpholin-4-yl-t hieno[3,2-d]pyrimidine]",Increase in exposure (Cmax and AUC0-24) with dose,"[1]; across the dose levels studied, 15-450mg",dose-proportional
same,half-life,[1]; oral,13.1 to 24.1 h
same,half-life,"[1]; oral, 15 mg",19.2 h
same,AUC(0-t),[1]; [19],0.978 µM·h
same,AUC(0-t),[1]; [20],1.35 µM·h
same,Cmax,[1]; [19],112 nM
same,Cmax,[1]; [20],116 nM
same,Tmax,[1]; [19],2 h
same,Tmax,[1]; [20],1.5 h
same,half-life,"[1]; oral, 30 mg",24.1 h
same,AUC(0-t),[1]; [21],1.18 µM·h
same,AUC(0-t),[1]; [22],1.9 µM·h
same,Cmax,[1]; [21],144 nM
same,Cmax,[1]; [22],179 nM
same,Tmax,[1]; [21],2 h
same,Tmax,[1]; [22],1 h
same,half-life,"[1]; oral, 45 mg",19.5 h
same,AUC(0-t),[1]; [23],2.77 µM·h
same,AUC(0-t),[1]; [24],4.09 µM·h
same,Cmax,[1]; [23],362 nM
same,Cmax,[1]; [24],436 nM
same,Tmax,[1]; [23],2 h
same,Tmax,[1]; [24],2 h
same,half-life,"[1]; oral, 60 mg",18.8 h
same,AUC(0-t),[1]; [25],2.02 µM·h
same,AUC(0-t),[1]; [26],2.78 µM·h
same,Cmax,[1]; [25],242 nM
same,Cmax,[1]; [26],270 nM
same,Tmax,[1]; [25],2 h
same,Tmax,[1]; [26],3 h
same,half-life,"[1]; oral, 80 mg",20.1 h
same,AUC(0-t),[1]; [27],5.45 µM·h
same,AUC(0-t),[1]; [28],9.86 µM·h
same,Cmax,[1]; [27],632 nM
same,Cmax,[1]; [28],779 nM
same,Tmax,[1]; [27],2 h
same,Tmax,[1]; [28],3 h
same,half-life,"[1]; oral, 100 mg",14.6 h
same,AUC(0-t),[1]; [29],3.19 µM·h
same,AUC(0-t),[1]; [30],5.64 µM·h
same,Cmax,[1]; [29],362 nM
same,Cmax,[1]; [30],751 nM
same,Tmax,[1]; [29],2 h
same,Tmax,[1]; [30],2 h
same,half-life,"[1]; oral, 130 mg",13.1 h
same,AUC(0-t),[1]; [31],2.99 µM·h
same,AUC(0-t),[1]; [32],5.03 µM·h
same,Cmax,[1]; [31],359 nM
same,Cmax,[1]; [32],457 nM
same,Tmax,[1]; [31],2 h
same,Tmax,[1]; [32],1 h
same,half-life,"[1]; oral, 180 mg",17.1 h
same,AUC(0-t),[1]; [33],5.95 µM·h
same,AUC(0-t),[1]; [34],8.25 µM·h
same,Cmax,[1]; [33],611 nM
same,Cmax,[1]; [34],783 nM
same,Tmax,[1]; [33],2 h
same,Tmax,[1]; [34],1 h
same,half-life,"[1]; oral, 245 mg",16.8 h
same,AUC(0-t),[1]; [35],8.18 µM·h
same,AUC(0-t),[1]; [36],11.3 µM·h
same,Cmax,[1]; [35],994 nM
same,Cmax,[1]; [36],1370 nM
same,Tmax,[1]; [35],2 h
same,Tmax,[1]; [36],1 h
same,half-life,"[1]; oral, 330 mg",15.7 h
same,AUC(0-t),[1]; [37],14.4 µM·h
same,AUC(0-t),[1]; [38],22.8 µM·h
same,Cmax,[1]; [37],1520 nM
same,Cmax,[1]; [38],2070 nM
same,Tmax,[1]; [37],2 h
same,Tmax,[1]; [38],3 h
same,half-life,"[1]; oral, 340 mg",20.9 h
same,AUC(0-t),[1]; [39],14.9 µM·h
same,AUC(0-t),[1]; [40],16.5 µM·h
same,Cmax,[1]; [39],1680 nM
same,Cmax,[1]; [40],1950 nM
same,Tmax,[1]; [39],2 h
same,Tmax,[1]; [40],1 h
same,half-life,"[1]; oral, 400 mg",14.8 h
same,AUC(0-t),[1]; [41],15.6 µM·h
same,Cmax,[1]; [41],1650 nM
same,Tmax,[1]; [41],2 h
same,half-life,"[1]; oral, 450 mg",15 h
same,AUC(0-t),[1]; [42],13.9 µM·h
same,AUC(0-t),[1]; [43],23.5 µM·h
same,Cmax,[1]; [42],1950 nM
same,Cmax,[1]; [43],2640 nM
same,Tmax,[1]; [42],2 h
same,Tmax,[1]; [43],2 h
same,Tmax,"[1]; po, fasting, all doses",2 h
same,Inhibition of phospho-AKT level in platelet rich plasma,[2]; 1 to 3 hours post-dose at the RP2D (330mg),up to 90%
same,Suppression of phosphorylated serine-473 AKT in platelet rich plasma,[2]; 3 hours post-dose at the MTD,> 90%
same,"Phospho-AKT in platelet rich plasma, sustained effect, % of baseline",[2]; 24 hours post-dose at the RP2D (330mg),50%
same,Reduction in tumor phospho-S6 expression,[3]; [44],75%
same,Reduction in tumor phospho-S6 expression,[3]; [45],56%
same,Decrease in AKT phosphorylation in tumor biopsies,"[4]; AUC >20uM.hr on day 15, 2 of 3 patients",100%
same,Suppression of phosphorylated serine-473 AKT in tumor,[4]; doses associated with AUC >20uM.hr,> 90%
same,Patients with metabolic partial response by EORTC-PET criteria,[5]; 32 evaluable patients,22%
same,Patients with metabolic partial response by EORTC-PET criteria (>25% reduction in mean SUVmax),[5]; 32 evaluable patients,7 of 32 and Seven of 32
same,Overall median change in SUVmax,[5]; all evaluable patients,−13%
same,Range of change in SUVmax,[5]; all evaluable patients,−47 to 22%
same,Dose levels showing reduction from baseline of 18F-FDG-tracer uptake,[5]; in vivo,≥ 45 mg
same,Reduction in SUVmax on 18F-FDG-PET,[5]; [44],47%
same,Reduction in mean SUVmax in subcapsular liver metastases,[5]; [45],30%
same,Patients with RECIST-based response,[6]; [46],none
same,Patients with response by GCIG-CA125 criteria,[6]; [46],1
same,Response by RECIST,[6]; [47],partial response
same,Time on pictilisib,[6]; [47],9.5 months
same,Duration of stable disease,[6]; [44],7.5 months
same,Duration of radiological stable disease (RECIST),[6]; [45],4 months
same,Serum CA125 after treatment,"[6]; platinum-refractory ovarian cancer patient, decrease from 1214 U/ml",400 U/ml
same,Dose levels with on-target pharmacodynamic activity,[7],≥ 100 mg
same,IC50,[8],3 nM
same,Mean fold-change (post- over pre-treatment) in plasma insulin,[9],3.58 (95%CI: 2.33-5.49)
same,Mean fold-change (post- over pre-treatment) in plasma glucose,[10],1.18 (95%CI: 1.10-1.26)
same,IC50,[11],33 nM
same,IC50,[12],3 nM
same,fold less activity against mTOR compared to p110α,[13],193 fold
same,growth inhibition,[14],98%
same,growth inhibition,[15],80%
same,Central nervous system (CNS) penetration compared with BKM120,[16],lower
same,Observed in vitro potency compared with BKM120,[17],higher
same,IC50,[18],75 nM
